The record followed here is PubChem BioAssay AID272 (DTP/NCI, 2004).

This experiment concerns Lewis lung carcinoma i.m., BDF1 mice, T/C %. In words: NCI In Vivo Anticancer Drug Screen. Data for tumor model Lewis Lung Carcinoma (intramuscular) in B6D2F1 (BDF1) mice. The gist of the method: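 Tumour-bearing mice were dosed with compound, and either their survival or their tumour size was measured. Results were expressed relative to vehicle-treated controls as T/C.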

Where [1] appears, read: endpoint: median survival time, dose: 14.0 mg/kg/injection, schedule: Q07DX003 (ip), vehicle: Klucel (hydroxypropylcellulose) (HPC), higher = longer survival.
Setting [2] is: endpoint: median survival time, dose: 23.0 mg/kg/injection, schedule: Q07DX003 (ip), vehicle: Klucel (hydroxypropylcellulose) (HPC), higher = longer survival.

SMILES strings stand for the structures. Values joined by “and” are separate entries in the source; they are usually repeats but may differ in a detail not shown here. Equal entries are not always repeated. Results filed as inconclusive are left out.

On to `OCC1OC(n2cnc3c(Cl)ncnc32)C(O)C1O` (stereo not given), for which the T/C was 121 % of control (endpoint: mean tumor weight (est.), dose: 25.0 mg/kg/injection, schedule: Q01DX011 (ip), vehicle: saline, higher = larger tumour); 91 % of control (endpoint: mean tumor weight (est.), dose: 50.0 mg/kg/injection, schedule: Q01DX011 (ip), vehicle: saline, higher = larger tumour); 117 % of control (endpoint: mean tumor weight (est.), dose: 100.0 mg/kg/injection, schedule: Q01DX011 (ip), vehicle: saline, higher = larger tumour); 94 % of control (endpoint: mean tumor weight (est.), dose: 400.0 mg/kg/injection, schedule: Q01DX011 (ip), vehicle: saline, higher = larger tumour); 44 % of control (endpoint: mean tumor weight, dose: 25.0 mg/kg/injection, schedule: Q01DX011 (ip), vehicle: Klucel (hydroxypropylcellulose) (HPC), higher = larger tumour); 88 % of control (endpoint: mean tumor weight, dose: 200.0 mg/kg/injection, schedule: Q01DX011 (ip), vehicle: Klucel (hydroxypropylcellulose) (HPC), higher = larger tumour). For the same compound, the T/C by setting is: (endpoint: median survival time, dose: 25.0 mg/kg/injection, schedule: Q01DX011 (ip), vehicle: saline, higher = longer survival) 100 % of control; (endpoint: median survival time, dose: 25.0 mg/kg/injection, schedule: Q01DX012 (ip), vehicle: Klucel (hydroxypropylcellulose) (HPC), higher = longer survival) 95 % of control; (endpoint: median survival time, dose: 100.0 mg/kg/injection, schedule: Q01DX011 (ip), vehicle: saline, higher = longer survival) 98 % of control; (endpoint: median survival time, dose: 200.0 mg/kg/injection, schedule: Q01DX012 (ip), vehicle: Klucel (hydroxypropylcellulose) (HPC), higher = longer survival) 104 % of control; (endpoint: median survival time, dose: 400.0 mg/kg/injection, schedule: Q01DX011 (ip), vehicle: saline, higher = longer survival) 92 % of control.
As for `NC(Cc1ccc(N(CCCl)CCCl)cc1)C(=O)O` (stereo not given), the T/C was 76 % of control (endpoint: mean tumor weight, dose: 1.0 mg/kg/injection, schedule: Q01DX011 (ip), vehicle: Klucel (hydroxypropylcellulose) (HPC), higher = larger tumour); 99 % of control (endpoint: mean tumor weight, dose: 2.0 mg/kg/injection, schedule: Q01DX011 (ip), vehicle: Klucel (hydroxypropylcellulose) (HPC), higher = larger tumour); 52 % of control (endpoint: mean tumor weight, dose: 4.0 mg/kg/injection, schedule: Q01DX011 (ip), vehicle: Klucel (hydroxypropylcellulose) (HPC), higher = larger tumour); 110 % of control (endpoint: median survival time, dose: 1.0 mg/kg/injection, schedule: Q01DX011 (ip), vehicle: Klucel (hydroxypropylcellulose) (HPC), higher = longer survival); 102 % of control (endpoint: median survival time, dose: 2.0 mg/kg/injection, schedule: Q01DX011 (ip), vehicle: Klucel (hydroxypropylcellulose) (HPC), higher = longer survival).
Consider `CNC(=S)N/N=C/CCC/C=N/NC(=S)NC`, for which the T/C is 112 % of control (endpoint: mean tumor weight (est.), dose: 18.75 mg/kg/injection, schedule: Q01DX011 (ip), vehicle: saline with Tween-80, higher = larger tumour); 91 % of control (endpoint: mean tumor weight (est.), dose: 37.5 mg/kg/injection, schedule: Q01DX011 (ip), vehicle: saline with Tween-80, higher = larger tumour); 53 % of control (endpoint: mean tumor weight (est.), dose: 75.0 mg/kg/injection, schedule: Q01DX011 (ip), vehicle: saline with Tween-80, higher = larger tumour); 90 % of control (endpoint: median survival time, dose: 18.75 mg/kg/injection, schedule: Q01DX011 (ip), vehicle: saline with Tween-80, higher = longer survival); 94 % of control (endpoint: median survival time, dose: 37.5 mg/kg/injection, schedule: Q01DX011 (ip), vehicle: saline with Tween-80, higher = longer survival); 102 % of control (endpoint: median survival time, dose: 75.0 mg/kg/injection, schedule: Q01DX011 (ip), vehicle: saline with Tween-80, higher = longer survival).
Regarding `COc1cccc2c1C(=O)c1c(O)c3c(c(O)c1C2=O)C[C@@](O)(C(C)=O)C[C@@H]3OC1CC(N)C(O)C(C)O1` (stereo not given in full), the T/C (endpoint: median survival time, dose: 0.25 mg/kg/injection, schedule: Q01DX011 (ip), vehicle: water, higher = longer survival) was 93 % of control; the T/C (endpoint: median survival time, dose: 0.5 mg/kg/injection, schedule: Q01DX011 (ip), vehicle: water, higher = longer survival) is 106 % of control and 117 % of control; the T/C (endpoint: median survival time, dose: 1.0 mg/kg/injection, schedule: Q01DX011 (ip), vehicle: water, higher = longer survival) was 107 % of control.
Consider `Cc1ccc(NC(=O)N(CCCl)N=O)cc1C`, for which the T/C was 106 % of control (endpoint: median survival time, dose: 8.4 mg/kg/injection, schedule: Q07DX003 (ip), vehicle: Klucel (hydroxypropylcellulose) (HPC), higher = longer survival); 91 % of control under setting [1]; 97 % of control under setting [2].
As for `CCCCc1ccc(NC(=O)N(CCCl)N=O)cc1`, the T/C by setting is: (endpoint: median survival time, dose: 3.0 mg/kg/injection, schedule: Q07DX003 (ip), vehicle: Klucel (hydroxypropylcellulose) (HPC), higher = longer survival) 112 % of control; (endpoint: median survival time, dose: 5.0 mg/kg/injection, schedule: Q07DX003 (ip), vehicle: Klucel (hydroxypropylcellulose) (HPC), higher = longer survival) 106 % of control; under setting [1], 110 % of control; under setting [2], 87 % of control.
Regarding `C(=C\c1ccccc1)/C[P+](c1ccccc1)(c1ccccc1)c1ccccc1`, the T/C runs as follows: (endpoint: mean tumor weight (est.), dose: 0.6 mg/kg/injection, schedule: Q01DX011 (ip), vehicle: saline, higher = larger tumour) 101 % of control; (endpoint: mean tumor weight (est.), dose: 1.25 mg/kg/injection, schedule: Q01DX011 (ip), vehicle: saline, higher = larger tumour) 100 % of control; (endpoint: mean tumor weight (est.), dose: 2.5 mg/kg/injection, schedule: Q01DX011 (ip), vehicle: saline, higher = larger tumour) 105 % of control; (endpoint: mean tumor weight (est.), dose: 5.0 mg/kg/injection, schedule: Q01DX011 (ip), vehicle: saline, higher = larger tumour) 93 % of control; (endpoint: median survival time, dose: 0.6 mg/kg/injection, schedule: Q01DX011 (ip), vehicle: saline, higher = longer survival) 98 % of control; (endpoint: median survival time, dose: 1.25 mg/kg/injection, schedule: Q01DX011 (ip), vehicle: saline, higher = longer survival) 107 % of control. The T/C (endpoint: median survival time, dose: 2.5 mg/kg/injection, schedule: Q01DX011 (ip), vehicle: saline, higher = longer survival) is 98 % of control and the T/C (endpoint: median survival time, dose: 5.0 mg/kg/injection, schedule: Q01DX011 (ip), vehicle: saline, higher = longer survival) was 100 % of control.
